In patent publication US11241442B2, “Methods of use for TRP channel antagonist-based combination cancer therapies” (President and Fellows of Harvard College, priority 2017, dated 2022):

Tested on: HCC1569 spheroids
Test: [H2O2]i by Hyper-2 in HCC1569 spheroids
Assay type: cell-based
Settings: AP-18, 300 nM A-967079 or 5 mM NAC
Procedure: For the measurement of [H2O2]i levels in MCF-10A acini and HCC1569 spheroids, cells were transduced with a lentiviral vector encoding Hyper-2 or Hyper-2 (C199S). The Hyper-2 fluorescence was measured at 37° C. in HEPES-buffered saline (HBS) containing the following (in mM): 150 NaCl, 6 KCl, 1.2 MgSO4, 2 CaCl2, 11.5 glucose, and 25 HEPES (pH adjusted to 7.4 with NaOH). Fluorescence images of the cells were acquired through the Eclipse Ti-E microscope (Nikon) with ORCA-R2 cooled CCD camera (Hamamatsu Photonics) and analyzed with Metafluor image acquisition software (Molecular Devices). The 488:405-nm ratio images were obtained on a pixel-by-pixel basis. 3D images are shown as one section from midstructure. For the measurement of [H2O2]i levels in MCF-10A cells cultured in suspension, cell clumps were dissociated with trypsin and stained with 10 μM peroxy green-1 for 30 min at 37° C. Cells were then subjected to flow cytometric analysis (FACSCalibur; BD Biosciences). ROS levels determined by flow cytometry are reported as mean fluorescence intensity expressed in arbitrary units. Hyper-2 ratio images are representative from two independent experiments and averaged Hyper-2 ratio represents mean±SD from the sum of two independent experiments.

Substance: AP-18
- increase in [H2O2]i (Hyper-2) in inner region of spheroids: unaffected
